According to patent US4866038A, “Method of stimulating integumental melanocytes by topical application of analogs of alpha-msh” (University Patents, Inc., priority 1988, dated 1989):
Where two headings read alike, the source gives them in different places. Non-standard residues stand in square brackets, D forms with d. Residues, ends and D or L forms follow the SMILES beside them. *: point of attachment. Phe(4-NO2) = N[C@@H](Cc1ccc([N+](=O)[O-])cc1)C(=O)O; dPhe(4-NO2) = N[C@H](Cc1ccc([N+](=O)[O-])cc1)C(=O)O; dPhg = N[C@@H](C(=O)O)c1ccccc1; Nle = CCCC[C@H](N)C(=O)O; For = O=C*

How the values were obtained:
frog (Rana pipiens) = format: cell-based
Experimental: (§1) Biological effect on in vivo and in vitro melanosome dispersion was examined using the frog (Rana pipiens) and the lizard (Anolis caroliniensis). [See Hadley et al., Science 213:1025-1027(1981)]; similar examinations were conducted with respect to the duration of its ability to stimulate melanosome dispersion in vitro using the skin bioassay as described in Shimume, Endrochrinology, 54:553-560(1954). The in vitro results are depicted in Table I.

[1] = system: lizard (Anolis caroliniensis); format: cell-based
Experimental: as §1

| Molecule | Relative Potency Frog (frog (Rana pipiens)) | Relative Potency Lizard [1] | Relative Potency Frog (frog (Rana pipiens); in vitro skin bioassay, alpha-MSH = 1.0) |
| --- | --- | --- | --- |
| CSCC[C@H](NC(C)=O)C(=O)N[C@@H](CCC(=O)O)C(=O)N[C@@H](Cc1c[nH]cn1)C(=O)N[C@H](C)C(=O)N[C@@H](CCCNC(=N)N)C(=O)N[C@@H](Cc1c[nH]c2ccccc12)C(=O)NCC(=O)N[C@@H](CCCCN)C(N)=O [Ac--[D-Ala^7]--alpha-MSH4-11 --NH2] (Ac-MEH[dA]RWGK-NH2) | 0.001 | – | – |
| CC(=O)N[C@@H](CCC(=O)O)C(=O)N[C@@H](Cc1c[nH]cn1)C(=O)N[C@H](Cc1ccccc1)C(=O)N[C@@H](CCCNC(=N)N)C(=O)N[C@@H](Cc1c[nH]c2ccccc12)C(=O)NCC(=O)N[C@@H](CCCCN)C(N)=O [Ac--[D-Phe^7]--alpha-MSH5-11 --NH2] (Ac-EH[dF]RWGK-NH2) | 0.01 | – | – |
| CCCC[C@H](NC(C)=O)C(=O)N[C@@H](CCC(=O)O)C(=O)N[C@@H](Cc1c[nH]cn1)C(=O)N[C@@H](C)C(=O)N[C@@H](CCCNC(=N)N)C(=O)N[C@@H](Cc1c[nH]c2ccccc12)C(=O)NCC(=O)N[C@@H](CCCCN)C(N)=O [Ac--[Nle^4 --Ala^7]--alpha-MSH4-11 --NH2] (Ac-[Nle]EHARWGK-NH2) | 0.02 | 0.009 | – |
| CCCC[C@H](NC(C)=O)C(=O)N[C@@H](CCC(=O)O)C(=O)N[C@@H](Cc1c[nH]cn1)C(=O)N[C@H](C)C(=O)N[C@@H](CCCNC(=N)N)C(=O)N[C@@H](Cc1c[nH]c2ccccc12)C(=O)NCC(=O)N[C@@H](CCCCN)C(N)=O [Ac--[Nle^4 --D-Ala^7]--alpha-MSH4-11 --NH2] (Ac-[Nle]EH[dA]RWGK-NH2) | 0.000080 | 0.020 | – |
| CCCC[C@H](NC(C)=O)C(=O)N[C@@H](CCC(=O)O)C(=O)N[C@@H](Cc1c[nH]cn1)C(=O)N[C@@H](Cc1ccccc1)C(=O)N[C@H](CCCNC(=N)N)C(=O)N[C@@H](Cc1c[nH]c2ccccc12)C(=O)NCC(=O)N[C@@H](CCCCN)C(N)=O [Ac--[Nle^4 --D-Arg^8]--alpha-MSH4-11 --NH2] (Ac-[Nle]EHF[dR]WGK-NH2) | 0.000016 | 0.0022 | – |
| CCCC[C@H](NC(C)=O)C(=O)N[C@@H](CCC(=O)O)C(=O)N[C@H](Cc1c[nH]cn1)C(=O)N[C@H](Cc1ccccc1)C(=O)N[C@@H](CCCNC(=N)N)C(=O)N[C@@H](Cc1c[nH]c2ccccc12)C(=O)NCC(=O)N[C@@H](CCCCN)C(N)=O [Ac--[Nle^4 --D-His^6 --D-Phe^7]--alpha-MSH4-11 --NH2] (Ac-[Nle]E[dH][dF]RWGK-NH2) | 0.0006 | 0.053 | – |
| CCCC[C@H](NC(C)=O)C(=O)N[C@@H](CCC(=O)O)C(=O)N[C@H](Cc1c[nH]cn1)C(=O)N[C@@H](Cc1ccccc1)C(=O)N[C@@H](CCCNC(=N)N)C(=O)N[C@@H](Cc1c[nH]c2ccccc12)C(=O)NCC(=O)N[C@@H](CCCCN)C(N)=O [Ac--[Nle^4 --D-His^6]--alpha-MSH4-11 --NH2] (Ac-[Nle]E[dH]FRWGK-NH2) | 0.0014 | 0.002 | – |
| CCCC[C@H](NC(C)=O)C(=O)N[C@@H](CCC(=O)O)C(=O)N[C@@H](Cc1c[nH]cn1)C(=O)N[C@H](Cc1ccccc1)C(=O)N[C@H](CCCNC(=N)N)C(=O)N[C@@H](Cc1c[nH]c2ccccc12)C(=O)NCC(=O)N[C@@H](CCCCN)C(N)=O [Ac--[Nle^4 --D-Phe^7 --D-Arg^8]--alpha-MSH4-11 --NH2] (Ac-[Nle]EH[dF][dR]WGK-NH2) | 0.00010 | 0.0022 | – |
| CCCC[C@H](NC(C)=O)C(=O)N[C@@H](CCC(=O)O)C(=O)N[C@@H](Cc1c[nH]cn1)C(=O)N[C@H](Cc1ccccc1)C(=O)N[C@@H](CCCNC(=N)N)C(=O)N[C@H](Cc1c[nH]c2ccccc12)C(N)=O [Ac--[Nle^4 --D-Phe^7 --D-Trp^9]--alpha-MSH4-9 --NH2] (Ac-[Nle]EH[dF]R[dW]-NH2) | 0.03 | 3.8 | – |
| CCCC[C@H](NC(C)=O)C(=O)N[C@@H](CCC(=O)O)C(=O)N[C@@H](Cc1c[nH]cn1)C(=O)N[C@H](Cc1ccccc1)C(=O)N[C@@H](CCCNC(=N)N)C(=O)N[C@H](Cc1c[nH]c2ccccc12)C(=O)NCC(=O)N[C@@H](CCCCN)C(N)=O [Ac--[Nle^4 --D-Phe^7 --D-Trp^9]--alpha-MSH4-11 --NH2] (Ac-[Nle]EH[dF]R[dW]GK-NH2) | 3.17 | 10.5 | – |
| CCCC[C@H](NC(C)=O)C(=O)N[C@@H](CCC(=O)O)C(=O)N[C@@H](Cc1c[nH]cn1)C(=O)N[C@H](Cc1ccccc1)C(=O)N[C@@H](CCCNC(=N)N)C(=O)N[C@@H](Cc1ccccc1)C(=O)NCC(=O)N[C@@H](CCCCN)C(N)=O [Ac--[Nle^4 --D-Phe^7 --Phe^9]--alpha-MSH4-11 --NH2] (Ac-[Nle]EH[dF]RFGK-NH2) | 0.017 | – | – |
| CCCC[C@H](NC(C)=O)C(=O)N[C@@H](CCC(=O)O)C(=O)N[C@@H](Cc1c[nH]cn1)C(=O)N[C@H](Cc1ccccc1)C(=O)N[C@@H](CCCNC(=N)N)C(=O)N[C@@H](Cc1cn(C=O)c2ccccc12)C(=O)NCC(=O)N[C@@H](CCCCN)C(N)=O [Ac--[Nle^4 --D-Phe^7 --TrpFor^9]--alpha-MSH4-11 --NH2] (Ac-[Nle]EH[dF]RW(For)GK-NH2) | 0.033 | – | – |
| CCCC[C@H](NC(C)=O)C(=O)N[C@@H](CCC(=O)O)C(=O)N[C@@H](Cc1c[nH]cn1)C(=O)N[C@H](Cc1ccccc1)C(=O)N[C@@H](CCCNC(=N)N)C(=O)N[C@@H](Cc1c[nH]c2ccccc12)C(N)=O [Ac--[Nle^4 --D-Phe^7 --alpha-MSH4-9 --NH2] (Ac-[Nle]EH[dF]RW-NH2) | – | 7.14 | – |
| CCCC[C@H](NC(C)=O)C(=O)N[C@@H](CCC(=O)O)C(=O)N[C@@H](Cc1c[nH]cn1)C(=O)N[C@H](Cc1ccccc1)C(=O)N[C@@H](CCCNC(=N)N)C(=O)N[C@@H](Cc1c[nH]c2ccccc12)C(=O)NCC(=O)N[C@@H](CCCCN)C(N)=O [Ac--[Nle^4 --D-Phe^7]--alpha-MSH4-11 --NH2] (Ac-[Nle]EH[dF]RWGK-NH2) | 0.012 | 8.0 | – |
| CCCC[C@H](NC(C)=O)C(=O)N[C@@H](CCC(=O)O)C(=O)N[C@@H](Cc1c[nH]cn1)C(=O)N[C@@H](C(=O)N[C@@H](CCCNC(=N)N)C(=O)N[C@@H](Cc1c[nH]c2ccccc12)C(=O)NCC(=O)N[C@@H](CCCCN)C(N)=O)c1ccccc1 [Ac--[Nle^4 --D-Plg^7]--alpha-MSH4-11 --NH2] (Ac-[Nle]EH[dPhg]RWGK-NH2) | 0.0003 | 0.0005 | – |
| CCCC[C@H](NC(C)=O)C(=O)N[C@@H](CCC(=O)O)C(=O)N[C@@H](Cc1c[nH]cn1)C(=O)N[C@@H](Cc1ccccc1)C(=O)N[C@@H](CCCNC(=N)N)C(=O)N[C@H](Cc1c[nH]c2ccccc12)C(=O)NCC(=O)N[C@@H](CCCCN)C(N)=O [Ac--[Nle^4 --D-Trp^9]--alpha-MSH4-11 --NH2] (Ac-[Nle]EHFR[dW]GK-NH2) | 0.61 | 1.7 | – |
| CCCC[C@H](NC(C)=O)C(=O)N[C@@H](CCC(=O)O)C(=O)N[C@@H](Cc1c[nH]cn1)C(=O)N[C@H](Cc1ccc(O)cc1)C(=O)N[C@@H](CCCNC(=N)N)C(=O)N[C@@H](Cc1c[nH]c2ccccc12)C(=O)NCC(=O)N[C@@H](CCCCN)C(N)=O [Ac--[Nle^4 --D-Tyr^7]--alpha-MSH4-11 --NH2] (Ac-[Nle]EH[dY]RWGK-NH2) | – | 1.0 | – |
| CCCC[C@H](NC(C)=O)C(=O)N[C@@H](CCC(=O)O)C(=O)N[C@@H](Cc1c[nH]cn1)C(=O)N[C@H](Cc1ccc([N+](=O)[O-])cc1)C(=O)N[C@@H](CCCNC(=N)N)C(=O)N[C@@H](Cc1c[nH]c2ccccc12)C(=O)NCC(=O)N[C@@H](CCCCN)C(N)=O [Ac--[Nle^4 --D-pNO2 Phe^7]-- alpha-MSH4-11 --NH2] (Ac-[Nle]EH[dPhe(4-NO2)]RWGK-NH2) | 0.10 | 4.0 | – |
| CCCC[C@H](NC(C)=O)C(=O)N[C@@H](CCC(=O)O)C(=O)N[C@@H](Cc1c[nH]cn1)C(=O)NCC(=O)N[C@@H](CCCNC(=N)N)C(=O)N[C@@H](Cc1c[nH]c2ccccc12)C(=O)NCC(=O)N[C@@H](CCCCN)C(N)=O [Ac--[Nle^4 --Gly^7]--alpha-MSH4-11 --NH2] (Ac-[Nle]EHGRWGK-NH2) | 0.005 | 0.0005 | – |
| CCCC[C@H](NC(C)=O)C(=O)N[C@@H](CCC(=O)O)C(=O)N[C@@H](Cc1c[nH]cn1)C(=O)N[C@@H](Cc1ccc(O)cc1)C(=O)N[C@@H](CCCNC(=N)N)C(=O)N[C@@H](Cc1c[nH]c2ccccc12)C(=O)NCC(=O)N[C@@H](CCCCN)C(N)=O [Ac--[Nle^4 --Tyr^7]--alpha-MSH4-11 --NH2] (Ac-[Nle]EHYRWGK-NH2) | – | 0.0090 | – |
| CSCC[C@H](NC(C)=O)C(=O)N[C@@H](CCC(=O)O)C(=O)N[C@@H](Cc1c[nH]cn1)C(=O)N[C@@H](Cc1ccc([N+](=O)[O-])cc1)C(=O)N[C@@H](CCCNC(=N)N)C(=O)N[C@@H](Cc1c[nH]c2ccccc12)C(=O)NCC(=O)N[C@@H](CCCCN)C(N)=O [Ac--[Phe(pNO2)^7]--alpha-MSH4-11 --NH2] (Ac-MEH[Phe(4-NO2)]RWGK-NH2) | 0.0003 | – | – |
| CC(=O)N[C@@H](Cc1ccc(O)cc1)C(=O)N[C@@H](CCC(=O)O)C(=O)N[C@@H](Cc1c[nH]cn1)C(=O)N[C@H](Cc1ccccc1)C(=O)N[C@@H](CCCNC(=N)N)C(=O)N[C@@H](Cc1c[nH]c2ccccc12)C(=O)NCC(N)=O [Ac--[Tyr^4 --D-Phe^7 --alpha-MSH4-10 --NH2] (Ac-YEH[dF]RWG-NH2) | 0.005 | – | – |
| CC(=O)N[C@@H](Cc1ccc(O)cc1)C(=O)N[C@@H](CCC(=O)O)C(=O)N[C@@H](Cc1c[nH]cn1)C(=O)N[C@H](Cc1ccccc1)C(=O)N[C@@H](CCCNC(=N)N)C(=O)N[C@@H](Cc1c[nH]c2ccccc12)C(=O)NCC(=O)N[C@@H](CCCCN)C(N)=O [Ac--[Tyr^4 --D-Phe^7]--alpha-MSH4-11 --NH2] (Ac-YEH[dF]RWGK-NH2) | 0.01 | – | – |
| Ac--[Phe--Gly^7 ]--alpha-MSH4-11 --NH2 | – | – | 0.10 |
